Literature values as cited in patent US20030190354A1 (priority 2002, published 2003).
Counter-ions that a name gives are not always drawn.

Settings: 0.2 M sodium chloride

## COc1ccc(C(CN(C)C)C2(O)CCCCC2)cc1 (racemic) [Venlafaxine hydrochloride, (R/S)-1-[2-(dimethylamino)-1-(4-methoxyphenyl)ethyl] cyclohexanol hydrochloride]
  octanol: water partition coefficient: 0.43
